“Also recorded” adds a separate entry of the source.
Assays:
Assay type in all cases: cell-based
[1] = system: Kuramochi cells; experiment: Cell proliferation (Incucyte), Kuramochi; settings: Lin28a/Lin28b-positive
Excerpt: (§1) To further evaluate whether the suppressive effects of Ln268 are specific to Lin28-positive cancer cells, we compared cell growth rates of DuNE (Lin28b-positive line) and Du145 (Lin28b-negative line), both of which are Lin28a-negative. DuNE has the same genomic background with Du145 except for the transduction of the SRRM4 gene. […] Furthermore, Ln268 had no impact on the cell growth of DuNE(KO) cells, in which the Lin28b gene was knocked out by CRISPR (Fig. 5C). […] We also tested several ovarian and endometrial cancer cell lines with different Lin28a and Lin28b expression profiles (Fig. 5E).

[2] = system: Du145 spheroids; experiment: Du145 spheroid growth; settings: 0-192 h
Excerpt: as §1
(§2) For a spheroid generation, 1000 cells/well were seeded in 96-well ULA round-bottomed plates (Corning, Amsterdam) using a multichannel pipette. 3D multicellular spheroids were spontaneously generated after 24 h culture. Plates were incubated for 6 days at 37 °C, 5% CO2, and 95% humidity. DuNE and Du145 cells were cultured in DMEM with 10% FBS. Fully automated image analysis of tumor spheroids was carried out with the Incucyte® S3 Live-Cell Analysis System. The size and shape of multicellular spheroids were analyzed by using the Incucyte® Spheroid Analysis Software Module.

[3] = system: DuNE cells; experiment: Drug-drug interaction (SynergyFinder) in DuNE cells; settings: score higher than 10 = synergistic
Protocol: Fig. 6 Ln268 enhances stress inducers to inhibit cancer cell growth. A, B DuNE cells were transfected with GFP-tagged Lin28b together with either RFP-tagged G3BP1, YB-1, or DCP1. Cells were then challenged with ARS (A), cisplatin (CP) or etoposide (etop) (B) to induce a stress condition. Confocal microscope detected the subcellular localization of Lin28b. C, D Du145, DuNE and DuNE(KO) cells were treated with ARS (C), cisplatin (CP) or etoposide (etop) (D). Percentage of cells forming SGs was counted in five random fields from two replicate experiments. E DuNE and DuNE(KO) cells were treated with ARS, cisplatin or etoposide. Cell viability was measured by Incucyte. F DuNE cells were transfected with GFP-tagged Lin28b and treated with ARS together with C1632, Ln15, Ln268, or RNase. Confocal microscope detected SGs formation mediated by Lin28b. Fluorescence images were captured, and SGs sizes and numbers were calculated as shown. […] Drug interactions were calculated by SynergyFinder, with a synergy score higher than 10 representing synergistic relationship. […]
We subsequently investigated whether Ln268 could potentiate anticancer effects of stress inducers to block cancer cell growth in vitro. First, we determined the IC50 values of each inhibitor, which were then used to formulate drug-drug interactions of Ln268 with cisplatin, etoposide, or ARS (Figure S5). […]

[4] = system: HEC1B cells; experiment: Cell proliferation (Incucyte), HEC1B; settings: Lin28a/Lin28b-negative
Excerpt: as §1

[5] = system: DuNE spheroids; experiment: DuNE 3D spheroid growth (Incucyte)
Excerpt: CSCs have characteristic tumorigenic, self-renewal, and differentiation properties. The self-renewal ability is hijacked by CSCs that makes them both tumorigenic and capable of sustaining long-term tumor growth, which can be evaluated by 3D spheroid and colony formation assays. We established a DuNE spheroid model in which DuNE cells formed 3D spheroids in 96-well plates (Figure S3). By integrating this 3D culture with the Incucyte live-cell imaging system, we quantified the sizes of the spheroid growth over 0–6 days to generate a spheroid growth curve. Using this model system, we treated the DuNE spheroids with increasing doses (0–100 μM) of C1632, Ln15, and Ln268 for 0–6 days. […] In addition, classic colony formation assays were used to measure the stemness in the DuNE model. Colony formation counts, which were ~50 under vehicle treatment after 14 days, decreased by 22% in C1632-treated plates, and by 75% and 96% in the Ln15 and Ln268 treated plates, respectively (Fig. 4D).
as §2

[6] = system: ES-2 cells; experiment: Cell proliferation (Incucyte), ES-2; settings: Lin28a/Lin28b-negative
Excerpt: as §1

[7] = system: TOV-112D cells; experiment: Cell proliferation (Incucyte), TOV-112D; settings: Lin28a/Lin28b-positive
Excerpt: as §1

[8] = system: Lin28b, let-7 target, CSC and NE biomarker genes in DuNE cells; experiment: Gene expression (real-time qPCR, immunoblotting) in DuNE cells; settings: 72 h
Protocol: Fig. 4 Ln268 strongly blocks cancer cell stemness of t-NEPC cells. A, B DuNE cells were treated with C1632, Ln15, and Ln268 for 72 h. Selected Let-7 targeted genes, stem cell biomarkers and NE biomarkers were measured by real-time qPCR (A). Lin28b and its downstream HMGA2 protein levels were measured by immunoblotting (B). C DuNE spheroids were treated with 0–100 μM of C1632, Ln15, and Ln268 for 0–6 days. Spheroid sizes were measured and plotted. D DuNE cells were used to perform colony formation assays in the presence of C1632, Ln15 and Ln268 for 14 days. The number of colonies formed in each treatment counted and plotted. E DuNE cells under 3D culture conditions were treated with C1632, Ln15, and Ln268 at the indicated concentrations. Cell growth rates were measured by Incucyte. F DuNE cells were treated with 0–20 μM Ln268 for 144 h. FACS measured cell populations at each stage of cell cycling. Three independent biological replicates were performed for all the assays. All results are presented as the mean ± SD.
Total RNA was extracted by TRIZOL reagent (Invitrogen), treated with deoxyribonuclease and reversely transcribed by random hexamers and superscript II (Invitrogen). Real-time qPCR was performed on the ABI PRISM 7900 HT system (Applied Biosystems) using the FastStart Universal SYBR Green Master mix (Roche) following standard protocol as we reported. […]

O=c1[nH]c(Nc2ccc(F)cc2O)cs1 [Ln268]
effect on growth of Kuramochi cells [1]: suppressed the growth
effect on Du145 spheroids [2]: no effect
synergy score, Ln268 + cisplatin [3]: 19.39
synergy score, Ln268 + etoposide [3]: 12.77
effect on growth of HEC1B cells [4]: no or minimal impacts
effect on DuNE spheroid growth [5]: strongest potency among all 13 candidate compounds; also recorded: efficiently blocked DuNE spheroid growth in a time-dependent manner
potency improvement over parent compound Ln15 (spheroid growth) [5]: ~ 2 fold
potency relative to C1632 (spheroid growth) [5]: approximately 10 fold
IC50 ([5]; 0-100 μM, 0-6 days, read-out: concentration to achieve 50% spheroid growth inhibition): 10 µM
effect on growth of ES-2 cells [6]: no or minimal impacts
effect on growth of TOV-112D cells [7]: suppressed the growth
effect on Lin28b mRNA and protein levels [8]: potently inhibited Lin28b at both mRNA and protein levels
inhibition of Oct4, Nanog and ID4 expression relative to C1632 ([8]; qPCR): stronger inhibitory effects than C1632

— article PMC11725581, “Developing novel Lin28 inhibitors by computer aided drug design” (Cell Death Discovery, 2025)
